The values that follow come from patent US5166146A, “Amino acid cyclopentanophenonthrene compounds” (Roussel Uclaf, priority 1989, dated 1992).

Test [1] has as its target T1, Glucocorticoid receptor of rat's thymus (Rattus norvegicus, UniProt P06536).
T1 construct: The thymuses were removed and homogenized at 0° C; from tissue; host or cells: thymus cytosol (105,000 g supernatant) of adrenalectomized male rats
T1 sequence (P06536 1-795): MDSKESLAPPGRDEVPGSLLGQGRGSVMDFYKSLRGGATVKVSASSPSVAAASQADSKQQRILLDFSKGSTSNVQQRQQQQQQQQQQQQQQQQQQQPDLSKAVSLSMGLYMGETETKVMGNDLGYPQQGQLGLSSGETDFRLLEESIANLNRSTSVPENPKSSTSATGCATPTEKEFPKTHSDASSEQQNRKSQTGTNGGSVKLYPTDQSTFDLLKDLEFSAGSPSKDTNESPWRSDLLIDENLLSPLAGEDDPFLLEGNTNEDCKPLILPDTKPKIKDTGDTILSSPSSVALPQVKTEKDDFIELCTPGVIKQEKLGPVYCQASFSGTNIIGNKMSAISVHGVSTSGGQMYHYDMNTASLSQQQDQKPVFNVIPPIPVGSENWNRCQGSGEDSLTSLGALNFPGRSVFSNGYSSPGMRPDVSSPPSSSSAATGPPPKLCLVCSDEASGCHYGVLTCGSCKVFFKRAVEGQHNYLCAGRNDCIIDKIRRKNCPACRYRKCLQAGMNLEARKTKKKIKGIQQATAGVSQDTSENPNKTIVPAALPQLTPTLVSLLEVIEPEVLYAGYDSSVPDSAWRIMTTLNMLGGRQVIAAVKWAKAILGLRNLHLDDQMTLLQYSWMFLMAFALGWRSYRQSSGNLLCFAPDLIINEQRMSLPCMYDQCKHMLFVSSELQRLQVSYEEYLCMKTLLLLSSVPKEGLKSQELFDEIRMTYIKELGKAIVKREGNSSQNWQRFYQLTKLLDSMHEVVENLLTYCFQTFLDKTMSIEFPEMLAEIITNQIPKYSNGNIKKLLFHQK
In words: Relative bond affinity, glucocorticoid receptor of rat's thymus (tritiated dexamethasone displacement). It counts as binding. As to conditions: dexamethasone = 100. Here is the method:
Male rats weighing 160 to 200 g were suprarenalectomized and 4 to 8 days after this removal, the animals were killed. The thymuses were removed and homogenized at 0° C. using a Potter teflon-flask in a (TSD) 10 mM Tris, 0.25M saccharose, 2mM dithiothreitol, HCl, pH 7.4 buffer (1 g of tissue per 10 ml of TSD). The homogenate was ultracentrifuged at 105,000 g×90 mn at 0° C. and aliquots of the supernatant or "cystosol" were incubated at 0° C. for 4 hours and 24 hours with constant concentration (T=2.5 nM) of tritiated dexamethasone in the presence of increasing concentrations (0-2,500 nM) of cold dexamethasone or of the cold product under test. The concentration of the bonded tritiated dexamethasone (B) was then measured in each incubate by the technique of adsorption with carbon-dextran.
(§1) The calculation of the relative bond affinity (RBA) was identical for all receptors. […]
(§2) The straight line of the equation: [formula] was determined. […]
(§3) The intersections of the straight line I50 and the curves allow the evaluation of the concentrations of the cold reference hormone (CH) and of the cold product under test (CX) which inhibit by 50% the bonding of the tritiated hormone on the receptor. The relative bond affinity (RBA) of the product under test was determined by the equation RBA=100 (CH)/(CX)

Test [2] concerns the target T2, Progesterone receptor of rabbit's uterus (Oryctolagus cuniculus, UniProt P06186).
T2 construct: The uteruses were removed, weighed and homogenised at 0° C; from tissue; host or cells: uterus cytosol (105,000 g supernatant) of estradiol-primed impuberal female rabbits
T2 sequence (P06186 1-930): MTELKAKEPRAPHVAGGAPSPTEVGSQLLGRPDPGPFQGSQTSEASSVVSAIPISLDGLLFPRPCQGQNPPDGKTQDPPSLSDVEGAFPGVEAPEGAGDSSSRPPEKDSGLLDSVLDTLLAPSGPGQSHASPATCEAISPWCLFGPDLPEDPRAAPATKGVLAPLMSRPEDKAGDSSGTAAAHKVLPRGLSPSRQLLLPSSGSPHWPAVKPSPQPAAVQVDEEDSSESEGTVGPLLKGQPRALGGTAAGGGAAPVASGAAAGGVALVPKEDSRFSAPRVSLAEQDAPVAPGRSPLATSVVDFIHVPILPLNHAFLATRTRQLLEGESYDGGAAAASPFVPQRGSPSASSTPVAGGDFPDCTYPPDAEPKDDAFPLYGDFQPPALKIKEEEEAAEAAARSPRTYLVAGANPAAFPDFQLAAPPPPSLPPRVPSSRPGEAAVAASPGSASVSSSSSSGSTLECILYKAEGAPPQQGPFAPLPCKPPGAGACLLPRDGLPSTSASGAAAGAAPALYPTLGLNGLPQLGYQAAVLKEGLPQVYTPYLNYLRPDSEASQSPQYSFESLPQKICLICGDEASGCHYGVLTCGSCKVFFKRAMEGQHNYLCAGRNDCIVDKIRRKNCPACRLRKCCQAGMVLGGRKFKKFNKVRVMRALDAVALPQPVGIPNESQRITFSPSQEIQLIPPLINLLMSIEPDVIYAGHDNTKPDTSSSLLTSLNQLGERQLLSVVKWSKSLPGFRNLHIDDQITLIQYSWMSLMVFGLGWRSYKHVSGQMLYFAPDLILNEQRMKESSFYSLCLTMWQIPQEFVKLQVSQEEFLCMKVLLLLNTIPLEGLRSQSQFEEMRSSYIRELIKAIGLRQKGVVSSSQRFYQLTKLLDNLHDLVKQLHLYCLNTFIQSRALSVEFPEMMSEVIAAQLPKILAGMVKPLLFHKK
In words: Relative bond affinity, progesterone receptor of rabbit's uterus (tritiated R 5020 displacement). It counts as binding. Particulars: progesterone = 100. Here is the method: Impuberal female rabbits weighing about 1 kg received a cutaneous application of 25 μg of estradiol and five days after this treatment, the animals were killed. The uteruses were removed, weighed and homogenised at 0° C. using a Potter teflon-flask ina (TS) 10 mM Tris, 0.25M saccharose, HCl pH 7.4 buffer (1 g of tissue per 50 ml of TS). The homogenate was ultra-centrifuged at 105,000 g×90 mn at 0° C. and aliquots of the supernatant or "cytosol", were incubated at 0° C. for 2 hours and 24 hours with a constant concentration (T=5 nm) of tritiated R 5020 (17,21-dimethyl-19-nor-Δ^4,9 -pregnadien-3, 20-dione, strongly progrestomimetic mimetic having a great affinity for the progesterone receptor), in the presence of increasing concentrations (0-2500 nM) of cold progesterone, or of the product under test. The concentration of bonded tritiated R 5020 (B) was measured in each incubate by the technique of adsorption with carbon-dextran. […]
as §2, §3

The test system of the next test is rat thymocytes. Description: Anti-glucocorticoid activity vis-a-vis dexamethasone: incorporation of uridine in rat thymocytes. It counts as cell-based. The text has this: Glucocorticoids cause an inhibition of the incorporation of nucleosides in lymphoid tissue and the measurement of the incorporation of radio-active uridine in the thymocytes in the presence of a product under test allows its glucocorticoid activity to be evaluated.
In accordance with the technique described by Dausse et al (3), the thymus of a suprarenalectomized rat weighing 160 to 180 g was removed, shredded and homogenized slowly using a teflon-flask homogenizer in Hanks solution. The cellular suspension was filtered on gauze, then centrifuged at 800 g×10 mn. A new centrifugation was carried out at 800 g×10 mm and the deposit was suspended in a nutritive medium (M.E.M. Gibco). The cellular concentration was adjusted to approximately 20×10^6 cells per ml and aliquots of 250 μl were incubated under carbogen for 3 hours at 37° C. with 5×10^-8 M of dexamethasone in the presence or not of increasing concentrations of product (10^-8 to 10^-6 M). 0.1 uCi of tritiated uridine was added to each incubate and the incubation was continued for one hour. The incubates were cooled and 1 ml of a cold solution of trichloroacetic acid (TCA) at 5% weight/volume was added. […] The radioactivity retained on the filters (representing the tritiated uridine incorporated in the thymocytes) was measured using a liquid scintillation spectrometer.

Test [3] addresses T3, Androgen receptor of rat's prostate (Rattus norvegicus, UniProt P15207).
T3 construct: The prostates were removed, weighed and homogenized at 0° C; from tissue; host or cells: prostate cytosol (105,000 g supernatant) of castrated male rats
T3 sequence (P15207 1-902): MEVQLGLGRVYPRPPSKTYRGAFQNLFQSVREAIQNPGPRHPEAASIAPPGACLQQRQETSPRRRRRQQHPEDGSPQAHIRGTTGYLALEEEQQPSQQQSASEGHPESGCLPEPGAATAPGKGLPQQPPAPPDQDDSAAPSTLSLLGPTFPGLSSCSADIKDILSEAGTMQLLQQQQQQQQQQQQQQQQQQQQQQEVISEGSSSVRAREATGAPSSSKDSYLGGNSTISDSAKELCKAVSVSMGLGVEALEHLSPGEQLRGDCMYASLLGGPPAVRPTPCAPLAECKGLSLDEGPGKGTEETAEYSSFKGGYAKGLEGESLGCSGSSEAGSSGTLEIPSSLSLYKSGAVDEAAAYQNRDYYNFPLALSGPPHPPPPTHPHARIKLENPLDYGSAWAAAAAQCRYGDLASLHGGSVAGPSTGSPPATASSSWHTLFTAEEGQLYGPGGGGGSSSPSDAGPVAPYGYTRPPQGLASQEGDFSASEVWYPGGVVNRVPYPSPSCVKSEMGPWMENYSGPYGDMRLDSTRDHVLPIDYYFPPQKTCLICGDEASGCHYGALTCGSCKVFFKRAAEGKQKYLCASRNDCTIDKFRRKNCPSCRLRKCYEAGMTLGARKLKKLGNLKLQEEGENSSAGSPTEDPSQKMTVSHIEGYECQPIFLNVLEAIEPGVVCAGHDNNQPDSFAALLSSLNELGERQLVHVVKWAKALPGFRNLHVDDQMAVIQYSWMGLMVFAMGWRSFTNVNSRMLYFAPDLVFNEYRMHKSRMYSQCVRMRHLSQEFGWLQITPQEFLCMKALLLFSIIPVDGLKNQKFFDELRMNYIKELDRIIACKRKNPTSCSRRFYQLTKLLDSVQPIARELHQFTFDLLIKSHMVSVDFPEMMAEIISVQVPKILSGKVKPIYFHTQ
Description: Relative bond affinity, androgen receptor of rat's prostate (tritiated testosterone displacement). As to conditions: testosterone = 100. The format is binding. Here is the method: Male rats weighing of 160 to 200 g were castrated and 24 hours after the castration, the animals were killed. The prostates were removed, weighed and homogenized at 0° C. using a Potter Teflon-flask in a (TSDPM) 10 mM Tris, 0.25 M saccharose, 0.1 mM phenyl methane sulfonyl fluoride, 20 mM molybdate, 2mM dithiothreitol, HCl pH 7.4 buffer (1 g of tissue per 5 ml of TSDPM). The homogenate was ultracentrifuged at 105,000 g×60 mn at 0° C. and aliquots of the supernatant or "cytosol" were incubated at 0° C. with a constant concentration of tritiated testosterone in the presence of increasing concentrations (0-1000 nM) of cold testosterone or of the product under test. […]
as §1, §2, §3

Molecules are shown by their SMILES. Counter-ions that a name gives are not always drawn.

Take `CC#C[C@]1(O)CC[C@H]2[C@@H]3CCC4=CC(=O)CCC4=C3[C@@H](c3ccc(N(C)CC(=O)O)cc3)C[C@@]21C` [Example 1, Sodium salt of [[4-[17α-(1-propynyl)-Δ^4,9-estradien-17β-ol-3-one-11 β-yl]-phenyl]-methylamino]-acetic acid]: the “relative bond affinity (RBA) Glucocorticoid 4H” value in test [1] (incubation 4 hours at 0° C.) amounted to 101. Besides, the “relative bond affinity (RBA) Glucocorticoid 24H” value in test [1] (incubation 24 hours at 0° C.) came out at 129. Further, the “relative bond affinity (RBA) Progesterone 2H” value in test [2] (incubation 2 hours at 0° C.) turned out to be 22. In addition, in test [2] (incubation 24 hours at 0° C.), the “relative bond affinity (RBA) Progesterone 24H” value came to 107. Besides, the “anti-glucocorticoid activity (statement in words)” value in the test on rat thymocytes was “good anti-glucocorticoid activity”. Also, the “relative bond affinity (RBA) Androgen” value in test [3] (incubation (so in the source) at 0° C.) is given as 10,1. The “relative bond affinity (RBA) Androgen 0,5H” value in test [3] (incubation half an hour at 0° C.) is listed as 2,1.
